In paper PMC8044046 (European journal of medicinal chemistry, 2021):

What was measured:
Assay in all cases: CellTiter Glo cell viability
Assay type in all cases: cell-based
[1] = tested on: BT-474 (HER2+) breast cancer cell line; settings: read-out: IC50 (μM) BT-474 (HER2+); antiproliferative activity, 72 h, N=3, ±S.E
MCF-7 (HER2−) cell line = settings: read-out: IC50 (μM) MCF-7 (HER2−); antiproliferative activity, 72 h, N=3
[2] = tested on: Calu-3 (HER2+) lung cancer cell line; settings: read-out: IC50 (μM) Calu-3 (HER2+); antiproliferative activity, 72 h, N=3, ±S.E
[3] = tested on: A549 (HER2+) NSCLC cell line; settings: read-out: IC50 (μM) A549 (HER2+); antiproliferative activity, 72 h, N=3, ±S.E

Measured: IC50

H2N-K(S-(3-amino-3(biphenyl)propionic acid)F-OH [Control]
> 100 µM: all assays above
